Test results: publication PMC12378361, “Design and synthesis of photoswitchable desloratadine ligands for histamine H1 receptor photopharmacology” (RSC Medicinal Chemistry, 2025)
Where “and” joins values, the source holds several entries; their conditions need not be identical. Equal entries are not always repeated. Where two headings read alike, the source gives them in different places.

Legend:
[1] = biological target: hH1R; settings: cited from earlier work; for pKi hH1R PSScis: PSScis state; for pKi hH1R trans: trans isomer
[2] = biological target: T1, human histamine H1R (Homo sapiens, UniProt P35367); assay: Competition radioligand binding with [3H]mepyramine on homogenates of HEK293T cells expressing HA-H1R; settings: for pKi shift: pKi PSScis – pKi trans (log unit)
T1 construct: expressed in transfected cells; host or cells: HEK293T cells, transient expression; cell homogenates
Protocol: For 10c and 12c, continuous illumination at 365 nm was used to counteract the short half-lives of their PSScis states, while for the other compounds PSScis states were obtained by pre-illumination with 360 nm.
Experimental methods – Pharmacology
The homogenates were stored at −20 °C. […] A]erwards, the cell homogenates were incubated with the respecIve (photo)ligands in […]
black 96 well plates (Greiner). During the incubaIon Ime, 10c and 12c were conInuousl y i l l umi nated with 365 nm (10 V, 2 mW, constant mode) light (96 LED array plates, LAD-1, LEDA-x, Bio Research Center Co., Ltd. Izumi, Japan) to account for thei r short-lived cis isomers. A]er a 4-hour incubaIon Ime, the binding reacIon was stopped using a harvester (PerkinElmer). Upon mulIple wa s h ste ps through a polyethyleneimine-coated GF/C ﬁlter plate (PerkinElmer) receptor-bound radioligand was captured by the GF/C ﬁlter plate. A]er drying the GF/C plate, the ﬁlter-bound radioligand was quanIﬁed by scinIllaIon counIng using MicroScint-O and the Wallac MicroBeta counter (PerkinElmer). […]

[3] = UV-vis absorption spectroscopy; settings: 25 μM in HBSS buffer containing 50% DMSO; for λmax cis: n–π* band; for λmax trans: π–π* band
Protocol: (§1) The photochemical properties of the photoswitchable ligands (Table 1, Fig. S2–S10) were first characterized by UV-vis absorption spectroscopy.
(§2) Experimental procedures – Photochemistry
(§3) equipped with a thermostated cell holder set at 20 °C. Fits of UV−vis spectroscopy data were generated
(§4) IlluminaIon for all photochemical experiments was executed using a Suter
(§5) instruments Lambda LS with a 300 W full-spectrum lamp connected to a Suter instruments Lambda
For photochemical analyses,
(§6) IlluminaIons for pharmacological experiments were performed in cylindrical clear glass vials with a
(§7) The typi cal di stance between l i ght source and vi al or cuvete was 2 cm.

[4] = Thermal relaxation of PSScis states; settings: for Approximate t1/2 (thermal relaxation of PSScis): HBSS buffer containing 50% DMSO; for thermal half-lives (approximated dark stability), order of magnitude in words: in buffer
Protocol: as §1, §2, §3, §4, §5
For photochemical analyses,
as §6, §7

[5] = Photostationary state by LC-MS at the isosbestic point; settings: 10 mM in DMSO; for PSStrans (area% trans): after illumination of PSScis state with 434 ± 9 nm; for PSScis (area% cis): after illumination of trans isomer with 360 ± 20 nm
Protocol: as §1, §2, §3, §4, §5
For photochemical analyses,
as §6, §7

[6] = system: gpH1R; set-up: method as in PMID 30628180; settings: cited from earlier work; for pA2 gpH1R PSScis: PSScis state; for pA2 gpH1R trans: trans isomer
[7] = PSScis state obtained by pre-illumination with 360 nm, mean ± SEM, n = 3, read-out: pKi PSScis (converted)
[8] = trans isomer (8: template, not photoswitchable), [3H]mepyramine, mean ± SEM, n = 3, read-out: pKi trans (converted)
[9] = Arrhenius extrapolation to 20 °C
[10] = trans isomer (8: template, not photoswitchable), [3H]mepyramine, mean ± SEM, n = 3
[11] = continuous illumination at 365 nm during 4 h incubation at 25 °C, mean ± SEM, n = 3, read-out: pKi PSScis (converted)

T1 sequence (P35367 whole entry): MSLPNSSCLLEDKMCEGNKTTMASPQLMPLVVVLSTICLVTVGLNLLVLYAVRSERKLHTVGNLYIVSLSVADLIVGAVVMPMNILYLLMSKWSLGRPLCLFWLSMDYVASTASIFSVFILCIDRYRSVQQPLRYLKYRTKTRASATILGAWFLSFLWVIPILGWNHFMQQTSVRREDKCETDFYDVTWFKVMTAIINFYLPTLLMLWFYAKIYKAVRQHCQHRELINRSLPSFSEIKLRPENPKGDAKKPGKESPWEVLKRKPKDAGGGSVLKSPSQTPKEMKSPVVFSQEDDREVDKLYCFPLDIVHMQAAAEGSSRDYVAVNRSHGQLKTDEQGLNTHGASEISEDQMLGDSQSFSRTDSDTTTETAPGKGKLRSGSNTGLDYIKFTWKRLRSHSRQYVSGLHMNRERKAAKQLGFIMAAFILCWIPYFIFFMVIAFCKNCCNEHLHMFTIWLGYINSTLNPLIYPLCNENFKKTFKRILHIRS

Row | Compound | Ki [2, 7] | pKi shift [2] | Ki [2, 8] | λmax cis [3] | λmax trans [3] | Approximate t1/2 (thermal relaxation of PSScis) [4, 9] | thermal half-lives (approximated dark stability), order of magnitude in words [4] | PSStrans (area% trans) [5] | PSScis (area% cis) [5] | other results
1 | Cc1cncc(CN2CCC(=C3c4ccc(Cl)cc4CCc4cccnc43)CC2)c1 [compound 9, rupatadine] |  |  |  |  |  |  |  |  |  | pKi hH1R [1]: 8.4
2 | c1ccc(/N=N/c2ccc3c(c2)CCc2cccnc2C3=C2CCNCC2)cc1 [11b] | 501 nM | −0.6 | 126 nM | 435 nm | 338 nm | 5 days | days | 80 area% | 91 area% | 
3 | Clc1ccc2c(c1/N=N/c1ccccc1)CCc1cccnc1C2=C1CCNCC1 [11c] | > 1000 nM |  | > 1000 nM | 419 nm |  | 211 days | months | 82 area% | 67 area% | pKi PSScis ([2]; PSScis state obtained by pre-illumination with 360 nm, mean ± SEM, n = 3): <6.0; pKi trans [2, 10]: <6.0
4 | Clc1ccc2c(c1)CCc1cccnc1C2=C1CCN(Cc2ccccc2/N=N/c2ccccc2)CC1 [12c] |  | −0.1 | 3.98 nM |  | 329 nm |  | seconds |  |  | Ki [2, 11]: 5.01 nM; Approximate t1/2 (thermal relaxation of PSScis) ([4]; 20 °C): 0.000521 days
5 | Clc1ccc2c(c1)CCc1cc(/N=N/c3ccccc3)cnc1C2=C1CCNCC1 [10b] | 3.98 nM | −0.3 | 2 nM | 430 nm | 335 nm | 31 days | months | 79 area% | 87 area% | 
6 | CN1CCC(Oc2ccccc2Cc2ccccc2)CC1 [compound 4] |  |  |  |  |  |  |  |  |  | pKi hH1R [1]: 8.7 ± 0.1
7 | CN1CCN(/C(=N\c2ccc(/N=N/c3ccc([N+](=O)[O-])cc3)cc2)c2ccc(Cl)cc2)CC1 [compound 3] |  |  |  |  |  |  |  |  |  | pA2 gpH1R PSScis [6]: 4.5 ± 0.1; pA2 gpH1R trans [6]: 6.2 ± 0.1
8 | Clc1ccc2c(c1)CCc1cccnc1C2=C1CCN(Cc2ccc(/N=N/c3ccccc3)cc2)CC1 [12a] | 3.16 nM | −0.1 | 2.51 nM | 432 nm | 327 nm | 19 days | days | 83 area% | 93 area% | 
9 | Clc1ccc2c(c1)CCc1cccnc1C2=C1CCN(Cc2cccc(/N=N/c3ccccc3)c2)CC1 [12b] | 6.31 nM | −0.1 | 5.01 nM | 423 nm | 325 nm | 198 days | months | 81 area% | 91 area% | 
10 | CN1CCN(C2=Nc3ccc(Cl)cc3Oc3ccccc32)CC1 [compound 1] |  |  |  |  |  |  |  |  |  | pKi hH1R [1]: 8.1 ± 0.1
11 | CN1CCN(/C(=N\c2ccc(/N=N/c3ccc(S(=O)(=O)O)cc3)cc2)c2ccc(Cl)cc2)CC1 [compound 2] |  |  |  |  |  |  |  |  |  | pA2 gpH1R PSScis [6]: 4.7 ± 0.1; pA2 gpH1R trans [6]: 5.9 ± 0.1
12 | Clc1ccc2c(c1)CCc1ccc(/N=N/c3ccccc3)nc1C2=C1CCNCC1 [10a] | 15.8 nM | −0.5 | 5.01 nM | 429 nm | 332 nm | 38 days | months | 85 area% | 91 area% | Ki ([2]; trans isomer, read-out: Ki trans): 2 nM; fold higher H1R affinity compared to 11b ([2]; trans isomers): approximately 25 fold; light-induced affinity shift ([2]; trans vs PSScis): 3.2 fold
13 | Clc1cc2c(cc1/N=N/c1ccccc1)C(=C1CCNCC1)c1ncccc1CC2 [11a] | 251 nM | −0.2 | ~158 nM and 158 nM | 429 nm | 340 nm | 78 days | months | 79 area% | 97 area% | 
14 | CN1CCC(Oc2ccccc2/N=N/c2ccccc2)CC1 [compound 6] |  |  |  |  |  |  |  |  |  | pKi hH1R PSScis [1]: 5.1; pKi hH1R trans [1]: 5.2
15 | CN1CCC(Oc2cccc(/N=N/c3ccccc3)c2)CC1 [compound 5] |  |  |  |  |  |  |  |  |  | pKi hH1R PSScis [1]: < 5.0; pKi hH1R trans [1]: < 5.0
16 | CCOC(=O)N1CCC(=C2c3ccc(Cl)cc3CCc3cccnc32)CC1 [compound 7, loratadine] |  |  |  |  |  |  |  |  |  | pKi hH1R [1]: 6.8 ± 0.1
17 | Clc1ccc2c(c1)CCc1c(/N=N/c3ccccc3)ccnc1C2=C1CCNCC1 [10c] |  |  | 158 nM | 419 nm | 319 nm |  | minutes |  |  | Ki [2, 11]: 158 nM; pKi trans [2, 10]: 6.8 ± 0.0; Approximate t1/2 (thermal relaxation of PSScis) ([4]; 20 °C): 0.0104 days
